# From patent publication US7008636B2, “2,3,5-substituted biphenyls useful in the treatment of insulin resistance and hyperglycemia” (Wyeth, priority 1998, dated 2006)
# Columns and labels:
# [1] = molecular target: T1, recombinant, human protein tyrosine phosphatase (PTP) 1B (hPTP1B) (Homo sapiens, UniProt P18031); assay: Inhibition of tri-phosphorylated insulin receptor dodecaphosphopeptide dephosphorylation by hPTP1B; type: biochemical; conditions: 50 μM IR triphosphopeptide substrate, 5 min preincubation and 5 min reaction at 37° C., malachite green-ammonium molybdate phosphate detection
# T1 construct: made in house
# T1 sequence (P18031 1-435): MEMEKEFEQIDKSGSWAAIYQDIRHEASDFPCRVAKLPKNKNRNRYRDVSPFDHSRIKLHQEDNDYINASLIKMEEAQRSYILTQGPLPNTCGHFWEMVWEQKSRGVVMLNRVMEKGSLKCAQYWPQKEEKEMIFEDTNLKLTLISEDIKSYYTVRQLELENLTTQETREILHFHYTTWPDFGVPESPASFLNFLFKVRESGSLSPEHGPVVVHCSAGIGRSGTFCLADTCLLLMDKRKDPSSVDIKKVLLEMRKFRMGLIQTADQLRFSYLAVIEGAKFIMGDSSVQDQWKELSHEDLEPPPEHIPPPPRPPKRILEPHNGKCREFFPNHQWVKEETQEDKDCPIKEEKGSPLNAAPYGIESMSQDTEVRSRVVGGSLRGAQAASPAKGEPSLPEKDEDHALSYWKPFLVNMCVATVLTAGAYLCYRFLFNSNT
smiles,measurement,setting,value
"O=C(O)COc1c(-c2cccc(Cl)c2)cc(C(=O)NCC2(COCCCCc3ccccc3)CC2)cc1-c1cccc(Cl)c1 [Example 100, (3,3″-Dichloro-5′-{[1-(4-phenyl-butoxymethyl)-cyclopropylmethyl]-carbamoyl}-[1,1′;3′1″]terphenyl-2′-yloxy)acetic acid]",IC50,[1],389 nM
same,melting point,,> 52 °C (dec.)
"CC(C)(COc1c(-c2cccc(C(F)(F)F)c2)cc(C(=O)NCCCCCCCc2ccccc2)cc1-c1cccc(C(F)(F)F)c1)C(=O)O [Example 129, 2,2-Dimethyl-3-[5′-(7-phenyl-heptylcarbamoyl)-3,3″-bis-trifluoromethyl-[1,1′:3′,1″]terphenyl-2′-yloxy]-propionic acid]",IC50,[1],162 nM
same,melting point,,130 to 132 °C
"Cc1cccc(-c2cc(C(=O)NCCCCCCCc3ccccc3)cc(-c3cccc(C)c3)c2OCC(=O)O)c1 [Example 145, [3,3″-Dimethyl-5′-(7-phenyl-heptylcarbamoyl)-[1,1′:3′,1″]terphenyl-2′-yloxy]acetic acid]",IC50,[1],1150 nM
same,melting point,,58 to 62 °C
"Cc1cc(C)cc(-c2cc(C(=O)NCCCCCCCc3ccccc3)cc(-c3cc(C)cc(C)c3)c2OCCCC(=O)O)c1 [Example 148, 4-[3,5,3″,5″-Tetramethyl-5′-(7-phenyl-heptylcarbamoyl)-[1,1′:3′,1″]terphenyl-2′-yloxy]-butyric acid]",IC50,[1],249 nM
same,melting point,,64 to 66 °C
"CCCCCCCCCCCCNC(=O)c1cc(Br)c(OCC(=O)O)c(-c2ccccc2F)c1 [Example 156, (3-Bromo-5-dodecylcarbamoyl-2′-fluoro-biphenyl-2-yloxy)acetic acid]",IC50,[1],278 nM
same,melting point,,128 to 138 °C
"COc1ccc(-c2cc(C(=O)NCCCCCCCCc3ccccc3)cc(-c3cccc(C(F)(F)F)c3)c2OCC(=O)O)cc1 [Example 158, [4″-Methoxy-5′-(8-phenyl-octylcarbamoyl)-3-trifluoromethyl-[1,1′;3′,1″]terphenyl-2′-yloxy]acetic acid]",IC50,[1],246 nM
same,melting point,,139 to 144 °C
"CCCCCCCCCCCCNC(=O)c1cc(-c2cc(Cl)cc(Cl)c2)c(OCC(=O)O)c(-c2cc(Cl)cc(Cl)c2)c1 [Example 159, (3,5,3″,5″-Tetrachloro-5′-dodecylcarbamoyl-[1,1′;3′,1″]terphenyl-2′-yloxy)acetic acid]",IC50,[1],44 nM
same,melting point,,139 to 144 °C
"O=C(O)COc1c(-c2cc(Cl)cc(Cl)c2)cc(C(=O)NCCCCCCCCc2ccccc2)cc1-c1cc(Cl)cc(Cl)c1 [Example 160, [3,5,3″,5″-Tetrachloro-5′-(8-phenyl-octylcarbamoyl)-[1,1′;3′,1″]terphenyl-2′-yloxy]acetic acid]",IC50,[1],54 nM
same,melting point,,139 to 149 °C
"O=C(O)COc1c(-c2cc(Cl)cc(Cl)c2)cc(C(=O)NCCCCCCc2ccccc2)cc1-c1cc(Cl)cc(Cl)c1 [Example 161, [3,5,3″,5″-Tetrachloro-5′-(6-phenyl-hexylcarbamoyl)-[1,1′;3′,1″]terphenyl-2′-yloxy]acetic acid]",IC50,[1],33 nM
same,melting point,,151 to 159 °C
"CCCCCCc1cc(-c2ccccc2)c(OCC(=O)O)c(-c2ccccc2)c1 [Example 169, (5′-Hexyl-[1,1′;3′,1″]terphenyl-2′-yloxy)acetic acid]",IC50,[1],905 nM
same,melting point,,87 to 89 °C
"CCCCCCCCCc1cc(-c2ccccc2)c(OCC(=O)O)c(-c2ccccc2)c1 [Example 170, (5′-Nonyl-[1,1′;3′,1″]terphenyl-2′-yloxy)acetic acid]",IC50,[1],178 nM
same,melting point,,63 to 65 °C
"CCCCCCCCCCCCCCOc1cc(-c2ccccc2)c(OCC(=O)O)c(-c2ccccc2)c1 [Example 173, (5′-Tetradecyloxy-[1,1′;3′,1″]terphenyl-2′-yloxy)acetic acid]",IC50,[1],28 nM
same,melting point,,89 to 90 °C
"O=C(O)COc1c(-c2ccccc2)cc(C(c2ccccc2)(c2ccccc2)c2ccccc2)cc1-c1ccccc1 [Example 174, (5′-Trityl-[1,1′;3′,1″]terphenyl-2′-yloxy)acetic acid]",IC50,[1],633 nM
same,melting point,,211 to 214 °C
"CCCCCCCCCCCCNC(=O)c1cc(-c2cccc(C(F)(F)F)c2)c(OCC(=O)O)c(-c2cccc(C(F)(F)F)c2)c1 [Example 175, (5′-Dodecylcarbamoyl-3,3″-bis-trifluoromethyl-{1,1′;3′,1″]terphenyl-2′-yloxy)-acetic acid]",IC50,[1],50 nM
same,melting point,,154.3 to 158.2 °C
"O=C(O)COc1c(-c2cccc(C(F)(F)F)c2)cc(C(=O)NCCCCCCc2ccccc2)cc1-c1cccc(C(F)(F)F)c1 [Example 189, [5′-(6-Phenyl-hexylcarbamoyl)-3,3″-bis-trifluoromethyl-[1,1′:3′,1″}terphenyl-2′-yloxy]-acetic acid]",IC50,[1],336 nM
same,melting point,,166.5 to 168.8 °C
O=C(NCCCCCCCCc1ccccc1)c1cc(-c2cccc(C(F)(F)F)c2)c(OCCCCc2nnn[nH]2)c(-c2cccc(C(F)(F)F)c2)c1 [Example 198],IC50,[1],217 nM
same,melting point,,145.4 to 150.8 °C
